For data set [1], the system named is chronic ulcers in male Wistar rats treated with methylglyoxal. In words: Experimental model of chronic cutaneous ulcers (methylglyoxal-treated rats). The data set is classed as in vivo. The procedure:
The following experiment was aimed at evaluating the cicatrisation effect of the new pharmaceutical formulation of topical use that is based on traditional or deformable liposomes containing EGF in chronic lesions of poor prognosis, which simulate lesions in diabetic patients.
Experimental Biomodel Male Wistar rats with a body weight of 225-250 grams. Animal were maintained in controlled areas of the animal facility at CIGB under a constant illumination schedule of 12×12 hours, air change cycles, and free access to the diet. The rats were individually housed into T3 boxes with replacement of the bedding every 48 hours after its sterilization. The animals had previously been treated for two months with a 0.01% methylglyoxal solution to create a glycosylation environment similar to that occurring in a diabetic patient of long term evolution. Among other organic damages, this leads to a slow down of the granulation and remodelation of wounds (Berlanga J., Cibrian D., et al. (2005) Methylglyoxal administration induces diabetes-like microvascular changes and perturbs the healing process of cutaneous wounds. Clin Sci (Lond). 109(1):83-95).
(§1) Induction of ulcers: Animals were anesthetized by intraperitoneal injection of ketamine/xylazine. The back of rats comprising the area from the retroscapular space up to the sacrum was mechanically and chemically depilated. This region was aseptisized with a solution of povidone-iodine and isopropyl alcohol. The area over the skin selected for the induction of ulcers was marked with Chinese ink in order to induce circular, total width lesions with the aid of 9 mm-diameter biotomes (AcuDrem, Fl, USA). […] Lesions were washed with a sterile saline solution and their inner border was delineated with permanent ink for later calculation of wound area at time zero. The lesions of all animals were hygienized daily with 70% ethanol and sterile saline before the application of any treatment.
(§2) The ulcers created in the animals were randomly assigned to the following experimental treatment groups by using an input order/group crossmatching table:
(§3) Group I—no treatment. Group II—placebo (formulation of empty deformable liposomes—without EGF) applied topically.
(§4) Group III—infiltration of an EGF solution containing 75 micrograms per milliliter by using hypodermic needles. Infiltrations were performed on the border and the bottom of wounds
Group IV—treatment with the formulation of traditional liposomes containing 25 micrograms of EGF per gram of substance applied topically Group V—treatment with the formulation of traditional liposomes containing 75 micrograms of EGF per gram of substance applied topically Group VI—treatment with the formulation of deformable liposomes containing 25 micrograms of EGF per gram of substance applied topically Group VII—treatment with the formulation of deformable liposomes containing 75 micrograms of EGF per gram of substance applied topically
(§5) Each group consisted of 10 rats; therefore 60 wounds per group were studied. Treatments were performed daily, after sedation of animals with diazepam administrated by the intra-peritoneal route.
The lesions were traced on transparent acetate sheets for calculating the kinetics of the wounds contraction over the following times: Time 0—represents 100% of opened lesion area and 0% wound contraction, Time 1—72 hours after the induction of lesions, Time 2—five days after the induction of lesions, Time 3—seven days after the induction of lesions, […], on which the animals were sacrificed, according to previous experiences on the kinetics of the spontaneous cicatrisation of these lesions. The images with traced lesions borders were digitized. The area of lesions and the percent of contraction were calculated by using the image analysis software DIGIPAT. Statistical analyses of each parameter were performed with the SPSS package by using the non-parametric Mann Whitney U test, a signification level of p<0.05 was assumed. […]

The subject of data set [2] is controlled acute ulcers in male Wistar rats. The experiment in a line: Experimental model of controlled acute lesions. The class given is in vivo. The procedure: The following experiment was performed with the aim of evaluating the cicatrisation effect of the new pharmaceutical formulation for topical use, which is based on EGF-loaded (deformable or traditional) liposomes, in acute lesions of satisfactory prognosis.
as §1, with “Experimental Biomodel Male Wistar rats with a body weight of 225-250 grams. Animal were maintained in controlled areas of the animal facility at CIGB under a constant illumination schedule of 12×12 hours, air change cycles, and free access to the diet. The rats were individually housed into T3 boxes with replacement of the bedding every 48 hours after its sterilization. Induction” for “Induction”
as §2, §3, §4
Group IV—treatment with the formulation of traditional liposomes containing 25 micrograms of EGF per gram of substance applied topically Group V—treatment with the formulation of traditional liposomes containing 75 micrograms of EGF per gram of substance applied topically Group V—treatment with the formulation of deformable liposomes containing 25 micrograms of EGF per gram of substance applied topically Group VII—treatment with the formulation of deformable liposomes containing 75 micrograms of EGF per gram of substance applied topically
as §5
The lesions were traced on transparent acetate sheets for calculating the kinetics of the wounds contraction over the following times: Time 0—represents 100% of opened lesion area and 0% wound contraction, Time 1—72 hours after the induction of lesions, Time 2—five days after the induction of lesions, Time 3—seven days after the induction of lesions, Time 4—nine days after the induction of lesions. The ninth day was set as the end of this study, on which the animals were sacrificed, according to previous experiences on the kinetics of the spontaneous cicatrisation of these lesions. The images with traced lesions borders were digitized. The area of lesions and the percent of contraction were calculated by using the image analysis software DIGIPAT. Statistical analyses of each parameter were performed with the SPSS package by using the non-parametric Mann Whitney U test, a signification level of p<0.05 was assumed.
Animals were sacrificed by intra-peritoneal injection with an overdose of sodium pentobarbital (250 mg/kg). Lesion were dried up from the panniculus carnosus and fixed in 10% neutral formalin for later inclusion in paraffin. The hematoxylin/eosin, van Giesson's and Masson's trichromic stains were used. For each group, the number of animals with 100% epithelization of the lesion, and with a stratified and differentiated epidermis was determined. […]

The nature of data set [3]: Concentration of EGF in the viable tissue deep below the cutaneous lesions (ELISA). The data set is classed as in vivo, Wistar rats. To be noted: tissue 1 cm below lesion. How it is done:
To determine the concentration of EGF, histological cuts of the tissue deep below (1 cm) the cutaneous lesions were performed 20 min, 1 h, 4 h, 8 h, 16 h and 24 h after the induction of lesions. The tissue was homogenized into a phosphate-buffered saline solution. The concentration of EGF was determined by an Enzyme Linked Immunosorbent Assay (ELISA).

Data set [4] has as its system diabetic foot ulcers, grade IV and V lesions with a severe ischemic component. To be noted: EGF infiltrated in and around lesions with hypodermic needles; cited from earlier work.

Marks after values point to notes of the source that are not given here.

“Group III: infiltration of an EGF solution containing 75 micrograms per milliliter by using hypodermic needles”: the “No. wounds with 100% epithelization” value in data set [1] (60 wounds per group) amounted to 16; in data set [2] (60 wounds per group), 37. Further, the “No. wounds with a mature epithelium” value is listed as 11 in data set [1] (60 wounds per group) and 25 in data set [2] (60 wounds per group). In addition, the “Contraction (%)” value in data set [1] (Time 1) was 6.55 ± 1.14%; in data set [1] (Time 2), 10.25 ± 3.1 %; in data set [1] (Time 3), 25 ± 2.7 %; in data set [1] (Time 4) it was 53.5 ± 3.5 %; in data set [1] (Time 6), 61.7 ± 2.14 %; in data set [2] (Time 1 (72 hours after induction of lesions)), 12.3 ± 2.1*^a %. Besides, the “Contraction (%)” value in data set [2] (Time 2 (five days)) is reported as 23 ± 2.7*^a %; in data set [2] (Time 3 (seven days)), 67.5 ± 3.1*^a %; in data set [2] (Time 4 (nine days)) it was 76.5 ± 2.2*^a %. The “% area covered by mature granulation tissue” value was found to be 41.7 ± 2.25% in data set [1] (Time 4, 60 wounds per group) and 66.7 ± 3.22% in data set [2] (Time 4, 60 wounds per group). Further, the “EGF concentration” value was found to be 27.55 ± 0.14 µg/mL in data set [3] (20 min); 5.47 ± 0.1 µg/mL in data set [3] (1 h); 1.55 ± 0.1 µg/mL in data set [3] (4 h); 0.26 ± 0.04 µg/mL in data set [3] (8 h); 0.07 ± 0.01 µg/mL in data set [3] (16 h); 0.02 ± 0.005 µg/mL in data set [3] (24 h).

For “epidermal growth factor (EGF) [Free EGF, non-encapsulated epidermal growth factor]”, in data set [4], the efficacy result was “greater than 50%”.

Source of the values: US20090074850A1, “USE OF A TOPICAL COMPOSITION CONTAINING EPIDERMAL GROWTH FACTOR (EGF) FOR DIABETIC FOOT AMPUTATION PREVENTION” (priority 2005, published 2009).
